# In patent US20250228784A1, “ANTIFIBROTIC COMPOSITION” (Sunshine Lake Pharma Co., Ltd., priority 2021, published 2025):
# Experiment: Initial research on stability of the active compound on long-term storage
# Format: physicochemical
# Conditions: active compound alone, not formulated
structure (smiles),measurement,value
"CCCCCCN(CCCCCC)c1ccc(-n2c(C)nc(C)cc2=O)cc1F [compound having formula (I), 3-(4-(dihexylamino)-3-fluorophenyl)-2,6-dimethylpyrimidin-4(3H)-one]",stability on long-term storage,good stability
